# Data: US20100216779A1 (GLAXOSMITHKLINE LLC, priority 2007, published 2010)
# How the values were obtained:
# Format in all cases: cell-based
# [1] = tested on: NCI-H929 (multiple myeloma); assay: Inhibition of cell proliferation, CellTiter-Glo, NCI-H929; conditions: Homo sapiens, 72 h
# Outline: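 Cells were grown in medium with 10% FBS at 37° C, 5% CO2. Cell number was read as CellTiter-Glo luminescence (cellular ATP), with untreated wells as control.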
# [2] = target: T1, IR (NIH-3T3 cells over expressing human IGF-1R or IR) (Homo sapiens, UniProt P06213); assay: IR cellular autophosphorylation (DELFIA); conditions: NIH-3T3 cells over expressing IR, insulin stimulated
# T1 construct: expressed in transfected cells; host or cells: NIH-3T3 (mouse fibroblasts)
# T1 sequence (P06213 28-1382): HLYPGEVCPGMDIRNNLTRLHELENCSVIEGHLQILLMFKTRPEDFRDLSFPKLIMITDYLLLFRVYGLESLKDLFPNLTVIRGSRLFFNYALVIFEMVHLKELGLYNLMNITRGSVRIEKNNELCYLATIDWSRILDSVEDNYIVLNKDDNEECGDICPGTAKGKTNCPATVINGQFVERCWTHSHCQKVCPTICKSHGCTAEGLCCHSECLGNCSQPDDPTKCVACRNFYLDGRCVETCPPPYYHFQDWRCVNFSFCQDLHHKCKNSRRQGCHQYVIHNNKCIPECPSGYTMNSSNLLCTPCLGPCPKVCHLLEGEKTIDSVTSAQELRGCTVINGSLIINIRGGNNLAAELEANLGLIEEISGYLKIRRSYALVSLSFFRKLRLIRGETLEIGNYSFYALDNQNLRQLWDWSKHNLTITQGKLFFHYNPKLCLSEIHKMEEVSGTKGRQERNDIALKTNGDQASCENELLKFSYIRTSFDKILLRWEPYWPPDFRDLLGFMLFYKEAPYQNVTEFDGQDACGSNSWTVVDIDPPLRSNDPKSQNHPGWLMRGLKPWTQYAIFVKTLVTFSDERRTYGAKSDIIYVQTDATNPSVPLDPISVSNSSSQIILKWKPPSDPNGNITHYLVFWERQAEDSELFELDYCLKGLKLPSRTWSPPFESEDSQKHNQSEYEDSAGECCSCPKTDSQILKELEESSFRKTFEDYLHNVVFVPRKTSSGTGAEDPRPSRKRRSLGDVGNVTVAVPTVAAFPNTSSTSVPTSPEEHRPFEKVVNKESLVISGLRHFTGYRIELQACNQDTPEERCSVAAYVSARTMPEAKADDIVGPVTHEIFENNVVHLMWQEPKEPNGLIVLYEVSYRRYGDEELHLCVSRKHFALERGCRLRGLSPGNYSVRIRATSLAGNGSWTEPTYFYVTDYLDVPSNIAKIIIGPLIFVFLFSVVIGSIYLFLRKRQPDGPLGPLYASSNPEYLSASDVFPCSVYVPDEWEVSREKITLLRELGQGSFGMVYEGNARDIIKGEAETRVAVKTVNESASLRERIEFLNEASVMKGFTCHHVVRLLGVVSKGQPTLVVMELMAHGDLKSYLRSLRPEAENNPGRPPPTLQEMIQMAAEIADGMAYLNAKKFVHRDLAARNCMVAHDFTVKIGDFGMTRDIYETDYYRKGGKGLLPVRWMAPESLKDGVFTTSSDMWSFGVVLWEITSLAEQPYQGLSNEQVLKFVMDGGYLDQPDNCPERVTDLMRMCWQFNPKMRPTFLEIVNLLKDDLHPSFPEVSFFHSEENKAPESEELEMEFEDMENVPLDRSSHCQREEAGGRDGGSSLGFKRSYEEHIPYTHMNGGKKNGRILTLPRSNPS
# Outline: (§1)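 Autophosphorylation of IGF-1R or IR is measured in NIH-3T3 lines overexpressing each human receptor after 2 h compound pretreatment and a 15 min ligand challenge (IGF-1 30 ng/mL; insulin 3 ug/mL). Fluorescence is normalised to 100% stimulation.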
# COLO205 (colon) = assay: Inhibition of cell proliferation, CellTiter-Glo, COLO205; conditions: Homo sapiens, COLO 205, 72 h
# Outline: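 Exponentially growing COLO205 cells in medium with 10% FBS were plated below 2000 cells/well at 37 °C, 5% CO2. Untreated wells served as controls.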
# [3] = target: T2, human IGF-1R (NIH-3T3 cells over expressing human IGF-1R) (Homo sapiens, UniProt P08069); assay: IGF-1R cellular autophosphorylation (DELFIA); conditions: IGF-1 stimulated
# T2 construct: expressed in transfected cells; host or cells: NIH-3T3 (mouse fibroblasts)
# T2 sequence (P08069 31-1367): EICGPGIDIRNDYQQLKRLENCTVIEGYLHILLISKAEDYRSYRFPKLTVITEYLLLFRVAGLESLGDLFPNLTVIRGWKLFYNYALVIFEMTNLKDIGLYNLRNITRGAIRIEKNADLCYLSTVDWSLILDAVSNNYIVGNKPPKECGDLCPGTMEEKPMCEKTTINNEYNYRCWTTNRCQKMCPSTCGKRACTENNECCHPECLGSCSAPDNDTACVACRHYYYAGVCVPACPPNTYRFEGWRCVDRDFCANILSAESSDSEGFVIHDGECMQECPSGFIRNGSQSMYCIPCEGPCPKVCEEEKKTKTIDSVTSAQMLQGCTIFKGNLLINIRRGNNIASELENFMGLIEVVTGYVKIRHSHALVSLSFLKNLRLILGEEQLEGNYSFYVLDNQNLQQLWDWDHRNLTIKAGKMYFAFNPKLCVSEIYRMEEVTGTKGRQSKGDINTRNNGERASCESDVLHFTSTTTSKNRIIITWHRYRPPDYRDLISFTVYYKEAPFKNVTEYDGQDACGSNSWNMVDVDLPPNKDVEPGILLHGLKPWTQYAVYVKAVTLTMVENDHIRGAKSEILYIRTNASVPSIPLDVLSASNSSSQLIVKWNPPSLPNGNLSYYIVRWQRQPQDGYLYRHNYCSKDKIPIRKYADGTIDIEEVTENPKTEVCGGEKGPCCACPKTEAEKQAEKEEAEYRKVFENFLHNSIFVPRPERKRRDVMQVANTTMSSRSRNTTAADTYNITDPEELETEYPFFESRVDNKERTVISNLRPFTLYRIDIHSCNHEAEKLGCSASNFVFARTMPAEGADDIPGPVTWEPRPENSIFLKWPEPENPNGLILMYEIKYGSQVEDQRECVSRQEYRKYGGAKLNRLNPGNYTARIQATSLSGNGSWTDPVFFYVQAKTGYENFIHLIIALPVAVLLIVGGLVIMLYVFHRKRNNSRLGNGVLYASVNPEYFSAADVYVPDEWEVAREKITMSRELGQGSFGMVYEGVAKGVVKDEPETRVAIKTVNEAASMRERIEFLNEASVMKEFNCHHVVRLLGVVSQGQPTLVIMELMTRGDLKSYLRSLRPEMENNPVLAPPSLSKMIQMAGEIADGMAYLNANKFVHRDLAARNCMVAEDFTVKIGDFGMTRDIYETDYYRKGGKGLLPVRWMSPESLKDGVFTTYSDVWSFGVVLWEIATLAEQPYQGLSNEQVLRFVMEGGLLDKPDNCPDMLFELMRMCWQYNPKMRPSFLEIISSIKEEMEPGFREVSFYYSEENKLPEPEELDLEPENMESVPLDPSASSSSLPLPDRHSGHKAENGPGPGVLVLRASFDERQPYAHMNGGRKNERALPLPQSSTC
# Outline: as §1
SMILES,IC50 [1],IC50 [2],IC50 (COLO205 (colon)),IC50 [3]
COc1cc(C2CCN(C3CCN(CCF)CC3)CC2)ccc1Nc1nccc(-c2c(-c3cccc(C(=O)Nc4c(F)cccc4F)c3)nc3ccccn23)n1 [Example 100],250 to 1000 nM,< 100 nM,250 to 1000 nM,< 100 nM
"CCCN1CCN(c2ccc(Nc3nccc(-c4c(-c5ccc(OCC)c(C(=O)Nc6c(F)cccc6F)c5)nc5ccccn45)n3)c(OCC)c2)CC1 [Example 152, N-(2,6-difluorophenyl)-2-(ethyloxy)-5-[3-(2-{[2-(ethyloxy)-4-(4-propyl-1-piperazinyl)phenyl]amino}-4-pyrimidinyl)imidazo[1,2-a]pyridin-2-yl]benzamide]",< 250 nM,< 100 nM,250 to 1000 nM,< 100 nM
"CCOc1ccc(-c2nc3ccccn3c2-c2ccnc(Nc3ccc(N4CCC(N5CCC(CCS(C)(=O)=O)CC5)CC4)cc3OC)n2)cc1C(=O)Nc1c(F)cccc1F [Example 103, N-(2,6-difluorophenyl)-2-(ethyloxy)-5-(3-{2-[(2-(methyloxy)-4-{4-[2-(methylsulfonyl)ethyl]-1,4′-bipiperidin-1′-yl}phenyl)amino]-4-pyrimidinyl}imidazo[1,2-a]pyridin-2-yl)benzamide]",< 250 nM,< 100 nM,250 to 1000 nM,< 100 nM
"CCCN1CCC(c2ccc(Nc3nccc(-c4c(-c5ccc(OC)c(C(=O)Nc6c(F)cccc6F)c5)nc5ccccn45)n3)c(OCC)c2)CC1 [Example 154, N-(2,6-difluorophenyl)-5-[3-(2-{[2-(ethyloxy)-4-(1-propyl-4-piperidinyl)phenyl]amino}-4-pyrimidinyl)imidazo[1,2-a]pyridin-2-yl]-2-(methyloxy)benzamide]",< 250 nM,< 100 nM,250 to 1000 nM,< 100 nM
"COc1cc(N2CCC(CCS(C)(=O)=O)CC2)ccc1Nc1nccc(-c2c(-c3ccc(OC)c(C(=O)Nc4c(F)cccc4F)c3)nc3ccccn23)n1 [Example 201, N-(2,6-difluorophenyl)-2-(methyloxy)-5-(3-{2-[(2-(methyloxy)-4-{4-[2-(methylsulfonyl)ethyl]-1-piperidinyl}phenyl)amino]-4-pyrimidinyl}imidazo[1,2-a]pyridin-2-yl)benzamide]",< 250 nM,< 100 nM,250 to 1000 nM,< 100 nM
"COc1cc(N2CCC(C3CCN(CCS(C)(=O)=O)CC3)CC2)ccc1Nc1nccc(-c2c(-c3cccc(C(=O)Nc4c(F)cccc4F)c3)nc3ccccn23)n1 [Example 97, N-(2,6-difluorophenyl)-3-(3-{2-[(2-(methyloxy)-4-{1′-[2-(methylsulfonyl)ethyl]-4,4′-bipiperidin-1-yl}phenyl)amino]-4-pyrimidinyl}imidazo[1,2-a]pyridin-2-yl)benzamide]",250 to 1000 nM,< 100 nM,250 to 1000 nM,< 100 nM
"COc1cc(N2CCC(N3CCCCC3)CC2)ccc1Nc1nccc(-c2c(-c3cccc(C(=O)Nc4c(F)cccc4F)c3)nc3c(F)cccn23)n1 [Example 190, 3-[3-(2-{[4-(1,4′-bipiperidin-1-yl)-2-(methyloxy)phenyl]amino}-4-pyrimidinyl)-8-fluoroimidazo[1,2-a]pyridin-2-yl]-N-(2,6-difluorophenyl)benzamide]",250 to 1000 nM,100 to 500 nM,250 to 1000 nM,< 100 nM
"CCCc1cc(C2CCN(CCS(C)(=O)=O)CC2)ccc1Nc1nccc(-c2c(-c3ccc(OC)c(C(=O)Nc4c(F)cccc4F)c3)nc3ccccn23)n1 [Example 167, N-(2,6-difluorophenyl)-2-(methyloxy)-5-(3-{2-[(4-{1-[2-(methylsulfonyl)ethyl]-4-piperidinyl}-2-propylphenyl)amino]-4-pyrimidinyl}imidazo[1,2-a]pyridin-2-yl)benzamide]",> 1000 nM,< 100 nM,> 1000 nM,< 100 nM
"CCCN1CCC(c2ccc(Nc3nccc(-c4c(-c5ccc(OC)c(C(=O)Nc6c(F)cccc6F)c5)nc5ccccn45)n3)c(OC)c2)CC1 [Example 137, N-(2,6-difluorophenyl)-2-(methyloxy)-5-[3-(2-{[2-(methyloxy)-4-(1-propyl-4-piperidinyl)phenyl]amino}-4-pyrimidinyl)imidazo[1,2-a]pyridin-2-yl]benzamide]",< 250 nM,< 100 nM,250 to 1000 nM,< 100 nM
"COc1cc(N2CCC(N3CCN(CCS(C)(=O)=O)CC3)CC2)ccc1Nc1nccc(-c2c(-c3cccc(C(=O)Nc4c(F)cccc4F)c3)nc3c(F)cccn23)n1 [Example 193, N-(2,6-difluorophenyl)-3-[8-fluoro-3-(2-{[2-(methyloxy)-4-(4-{4-[2-(methylsulfonyl)ethyl]-1-piperazinyl}-1-piperidinyl)phenyl]amino}-4-pyrimidinyl)imidazo[1,2-a]pyridin-2-yl]benzamide]",< 250 nM,100 to 500 nM,> 1000 nM,< 100 nM
"CCOc1cc(N2CCC(N3CCN(CCF)CC3)CC2)ccc1Nc1nccc(-c2c(-c3cccc(C(=O)Nc4c(F)cccc4F)c3)nc3ccccn23)n1 [Example 116, N-(2,6-difluorophenyl)-3-(3-{2-[(2-(ethyloxy)-4-{4-[4-(2-fluoroethyl)-1-piperazinyl]-1-piperidinyl}phenyl)amino]-4-pyrimidinyl}imidazo[1,2-a]pyridin-2-yl)benzamide]",250 to 1000 nM,< 100 nM,250 to 1000 nM,< 100 nM
"COc1cc(N2CCC(N3CCC(C(F)(F)F)CC3)CC2)ccc1Nc1nccc(-c2c(-c3cccc(C(=O)Nc4c(F)cccc4F)c3)nc3ccccn23)n1 [Example 52, N-(2,6-difluorophenyl)-3-{3-[2-({2-(methyloxy)-4-[4-(trifluoromethyl)-1,4′-bipiperidin-1′-yl]phenyl}amino)-4-pyrimidinyl]imidazo[1,2-a]pyridin-2-yl}benzamide]",250 to 1000 nM,100 to 500 nM,250 to 1000 nM,< 100 nM

# Other lines, results leading:
IC50 [1],IC50 [2],IC50 (COLO205 (colon)),IC50 [3],SMILES
< 250 nM,< 100 nM,< 250 nM,< 100 nM,"COc1cc(N2CCN(CCS(C)(=O)=O)CC2)c(C)cc1Nc1nccc(-c2c(-c3ccc(OC)c(C(=O)Nc4c(F)cccc4F)c3)nc3ccccn23)n1 [Example 149, N-(2,6-difluorophenyl)-5-(3-{2-[(5-methyl-2-(methyloxy)-4-{4-[2-(methylsulfonyl)ethyl]-1-piperazinyl}phenyl)amino]-4-pyrimidinyl}imidazo[1,2-a]pyridin-2-yl)-2-(methyloxy)benzamide]"
< 250 nM,< 100 nM,< 250 nM,< 100 nM,"CCc1cc(Nc2nccc(-c3c(-c4ccc(OC)c(C(=O)Nc5c(F)cccc5F)c4)nc4ccccn34)n2)c(OC)cc1N1CCC(CCS(C)(=O)=O)CC1 [Example 207, N-(2,6-difluorophenyl)-5-(3-{2-[(5-ethyl-2-(methyloxy)-4-{4-[2-(methylsulfonyl)ethyl]-1-piperidinyl}phenyl)amino]-4-pyrimidinyl}imidazo[1,2-a]pyridin-2-yl)-2-(methyloxy)benzamide]"
< 250 nM,< 100 nM,< 250 nM,< 100 nM,"CCOc1cc(N2CCN(CCS(C)(=O)=O)CC2)c(C)cc1Nc1nccc(-c2c(-c3cccc(C(=O)Nc4c(F)cccc4F)c3)nc3ccccn23)n1 [Example 246, N-(2,6-difluorophenyl)-3-(3-{2-[(2-(ethyloxy)-5-methyl-4-{4-[2-(methylsulfonyl)ethyl]-1-piperazinyl}phenyl)amino]-4-pyrimidinyl}imidazo[1,2-a]pyridin-2-yl)benzamide]"
< 250 nM,< 100 nM,250 to 1000 nM,< 100 nM,"COc1cc(C2CCN(CCS(C)(=O)=O)CC2)c(C)cc1Nc1nccc(-c2c(-c3ccc(OC)c(C(=O)Nc4c(F)cccc4F)c3)nc3ccccn23)n1 [Example 163, N-(2,6-difluorophenyl)-5-(3-{2-[(5-methyl-2-(methyloxy)-4-{1-[2-(methylsulfonyl)ethyl]-4-piperidinyl}phenyl)amino]-4-pyrimidinyl}imidazo[1,2-a]pyridin-2-yl)-2-(methyloxy)benzamide]"
< 250 nM,< 100 nM,< 250 nM,< 100 nM,"COc1cc(N2CCC(N3CCN(S(C)(=O)=O)CC3)CC2)c(C)cc1Nc1nccc(-c2c(-c3ccc(OC)c(C(=O)Nc4c(F)cccc4F)c3)nc3ccccn23)n1 [Example 236, N-(2,6-difluorophenyl)-5-(3-{2-[(5-methyl-2-(methyloxy)-4-{4-[4-(methylsulfonyl)-1-piperazinyl]-1-piperidinyl}phenyl)amino]-4-pyrimidinyl}imidazo[1,2-a]pyridin-2-yl)-2-(methyloxy)benzamide]"
< 250 nM,< 100 nM,250 to 1000 nM,< 100 nM,"COc1cc(N2CCN(CCS(C)(=O)=O)[C@@H](C(C)C)C2)ccc1Nc1nccc(-c2c(-c3ccc(OC)c(C(=O)Nc4c(F)cccc4F)c3)nc3ccccn23)n1 [Example 250, N-(2,6-difluorophenyl)-5-[3-(2-{[4-{(3S)-3-(1-methylethyl)-4-[2-(methylsulfonyl)ethyl]-1-piperazinyl}-2-(methyloxy)phenyl]amino}-4-pyrimidinyl)imidazo[1,2-a]pyridin-2-yl]-2-(methyloxy)benzamide]"
